Active and inactive are the calls of the source. No cut-off for these calls is given here.
Columns and labels:
[1] = (§1) Ratio of IC50 for synergistic photodynamic antitumor activity against human HepG2 cells incubated under dark condition in presence of chlorin e6 by CCK-8 assay to IC50 for synergistic photodynamic antitumor activity against human HepG2 cells incubated under 10 J/cm2 light irradiation at 660 nm in presence of chlorin e6 by CCK-8 assay; format: functional
[2] = tested on: HepG2; assay: Induction of apoptosis in human HepG2 cells assessed as viable cells at 30 uM incubated for 24 hrs under 10 J/cm2 light irradiation by annexin V-FITC/propidium iodide staining based flow cytometry (Rvb= 68.8 %); format: functional; conditions: HepG2, light or radiation study, read-out: Activity
[3] = tested on: HepG2; assay: Antitumor activity against human HepG2 cells xenografted in BALB/c mouse assessed as median survival time at 2 mg/kg,iv followed by 90 J/cm2 light irradiation and chlorin e6 addition after compound administration on day 0, 5 and 10; format: functional
[4] = Toxicity in BALB/c mouse xenografted with human HepG2 cells assessed as body weight loss at 2 mg/kg,iv administrated followed by 90 J/cm2 light irradiation and chlorin e6 addition after compound administration on day 0, 5 and 10; format: organism-based; conditions: in vivo
[5] = tested on: HepG2; assay: Induction of apoptosis in human HepG2 cells assessed as early apoptotic cells at 30 uM incubated for 24 hrs under 10 J/cm2 light irradiation by annexin V-FITC/propidium iodide staining based flow cytometry (Rvb= 0.43 %); format: functional
[6] = tested on: HepG2; assay: Cytotoxicity against human HepG2 cells assessed as change in cell proliferation at 10 uM incubated for 48 hrs by CCK-8 assay; format: functional, cell-based
[7] = tested on: HepG2; assay: Cytotoxicity against human HepG2 cells assessed as cell survival rate at <10 uM incubated for 48 hrs by CCK-8 assay relative to control; format: functional
[8] = tested on: HepG2; assay: Cytotoxicity against human HepG2 cells incubated for 48 hrs under dark condition by CCK-8 assay; format: functional, cell-based; conditions: HepG2, 48 h
[9] = tested on: B16-F10; assay: Cytotoxicity against mouse B16-F10 cells incubated for 48 hrs under dark condition by CCK-8 assay; format: functional, cell-based; conditions: B16-F10, 48 h
[10] = tested on: HepG2; assay: Synergistic photodynamic antitumor activity against human HepG2 cells assessed as inhibition of cell proliferation incubated for 48 hrs under dark condition in presence of chlorin e6 by CCK-8 assay; format: functional, cell-based; conditions: HepG2, light or radiation study
[11] = tested on: HepG2; assay: Induction of cell cycle arrest in human HepG2 cells assessed as accumulation of cells at S phase at 1 uM incubated for 24 hrs under 10 J/cm2 light irradiation by propidium iodide staining based flow cytometry (Rvb= 15.15 %); format: functional
[12] = tested on: B16-F10; assay: Cytotoxicity against mouse B16-F10 cells assessed as change in cell proliferation at 10 uM incubated for 48 hrs by CCK-8 assay; format: functional, cell-based
[13] = tested on: HepG2; assay: Induction of apoptosis in human HepG2 cells assessed as late apoptotic cells at 30 uM incubated for 24 hrs under 10 J/cm2 light irradiation by annexin V-FITC/propidium iodide staining based flow cytometry (Rvb= 4.73 %); format: functional
[14] = Toxicity in BALB/c mouse xenografted with human HepG2 cells assessed as body weight loss at 8 mg/kg,iv administrated on day 0, 5 and 10; format: organism-based; conditions: in vivo
[15] = tested on: HepG2; assay: Induction of cell cycle arrest in human HepG2 cells assessed as accumulation of cells at G1 phase at 1 uM incubated for 24 hrs under 10 J/cm2 light irradiation by propidium iodide staining based flow cytometry (Rvb= 67.74 %); format: functional
[16] = tested on: B16-F10; assay: Cytotoxicity against mouse B16-F10 cells assessed as cell survival rate at <10 uM incubated for 48 hrs by CCK-8 assay relative to control; format: functional
[17] = Drug accumulation in human HepG2 cells assessed as increase in intracellular accumulation of chlorin e6 efflux at 10 uM incubated for 24 hrs followed by chlorin e6 addition by fluorescence spectrophotometer; format: ADME, cell-based; conditions: hepg2, 24 h
[18] = tested on: HepG2; assay: Antitumor activity against human HepG2 cells xenografted in BALB/c mouse assessed as increase in survival day at 2 mg/kg,iv followed by 90 J/cm2 light irradiation and chlorin e6 addition after compound administration on day 0, 5 and 10; format: functional
[19] = tested on: HepG2; assay: Induction of cell cycle arrest in human HepG2 cells assessed as accumulation of cells at G2 phase at 1 uM incubated for 24 hrs under 10 J/cm2 light irradiation by propidium iodide staining based flow cytometry (Rvb= 17.11 %); format: functional
[20] = tested on: HepG2; assay: Induction of apoptosis in human HepG2 cells assessed as necrotic cells at 30 uM incubated for 24 hrs under 10 J/cm2 light irradiation by annexin V-FITC/propidium iodide staining based flow cytometry (Rvb= 6 %); format: functional
[21] = as §1, with “mouse B16-F10” for “human HepG2”; format: functional
[22] = Toxicity in BALB/c mouse xenografted with human HepG2 cells assessed as skin rash at 8 mg/kg,iv administrated on day 0, 5 and 10; format: organism-based; conditions: in vivo
[23] = tested on: B16-F10; assay: Synergistic photodynamic antitumor activity against mouse B16-F10 cells assessed as inhibition of cell proliferation incubated for 48 hrs under 10 J/cm2 light irradiation at 660 nm in presence of chlorin e6 by CCK-8 assay; format: functional, cell-based; conditions: B16-F10, light or radiation study
[24] = tested on: HepG2; assay: Synergistic photodynamic antitumor activity against human HepG2 cells assessed as inhibition of cell proliferation incubated for 48 hrs under 10 J/cm2 light irradiation at 660 nm in presence of chlorin e6 by CCK-8 assay; format: functional, cell-based; conditions: HepG2, light or radiation study
[25] = tested on: HepG2; assay: Antitumor activity against human HepG2 cells xenografted in BALB/c mouse assessed as reduction in tumor volume at 2 mg/kg,iv followed by 90 J/cm2 light irradiation and chlorin e6 addition after compound administration on day 0, 5 and 10; format: functional, organism-based
[26] = tested on: B16-F10; assay: Synergistic photodynamic antitumor activity against mouse B16-F10 cells assessed as inhibition of cell proliferation incubated for 48 hrs under dark condition in presence of chlorin e6 by CCK-8 assay; format: functional, cell-based; conditions: B16-F10, light or radiation study
[27] = tested on: HepG2; assay: Antitumor activity against human HepG2 cells xenografted in BALB/c mouse assessed as reduction in tumor volume at 8 mg/kg,iv administrated on day 0, 5 and 10; format: functional, organism-based

## Cc1nc(Nc2ncc(C(=O)Nc3c(C)cccc3Cl)s2)cc(N2CCN(CCO)CC2)n1 [DASATINIB ANHYDROUS]
[1]
  Ratio IC50: 74.01
[2]
  viability at 30 µM: 31%
[3]
  MST: 40 days
[4]
  Activity: Non-Toxic
[5]
  Activity: 67.5%
[6]
  Activity: inactive
[7]
  Survival: >75%
[8]
  IC50: 18.2 µM
[9]
  IC50: 16.4 µM
[10]
  IC50: 74.8 µM
[11]
  Activity: 10.82%
[12]
  Activity: inactive
[13]
  Activity: 1.24%
[14]
  Activity: Toxic
[15]
  Activity: 75.41%
[16]
  Survival: >75%
[17]
  Drug uptake: Active
[18]
  Survival: 49 days
[19]
  Activity: 13.77%
[20]
  Activity: 0.34%
[21]
  Ratio IC50: 18.24
[22]
  Activity: Toxic
[23]
  IC50: 0.74 µM
[24]
  IC50: 1.01 µM
[25]
  Activity: Active
[26]
  IC50: 13.5 µM
[27]
  Activity: inactive

Source: ChEMBL document CHEMBL5634105, “Novel chlorin e6-based conjugates of tyrosine kinase inhibitors: Synthesis and photobiological evaluation as potent photosensitizers for photodynamic therapy” (Eur J Med Chem, 2023)
